Results: US9067970B2, “Anticancer agents comprising peptides with cancer-specific toxicity” (Korea Advanced Institute of Science and Technology, priority 2010, dated 2015)
Where no end group is shown, it is not given here.

Assays:
[1] = tested on: human keratinocyte (HaCat); experiment: MTT viability of normal human keratinocyte (HaCat) cells; details: peptide 10-200 μg/ml, 4 days, FIG. 2
Experimental: (§2) In order to test toxicity of the synthesized NKC and NRC peptides on normal cells, each of the cultured human embryo fibroblast (FSF), human keratinocyte (HaCat) and human erythrocyte was treated with the synthesized peptide, and the viability of each cell was analyzed.
(§3) In detail, each 1×10^4 of FSF and HaCat cells was aliquoted to a 96-well plate, and cultured for 24 hrs. Subsequently, each of the synthesized peptides, a known anticancer peptide, buforin IIb, and a known non-cytotoxic peptide, magainin 2 was added thereto at a concentration of 10, 25, 50, 100 or 200 μg/ml, and then the cells were cultured for 4 days. Thereafter, MTT (3-[4,5-dimethylthiazol-2-yl]-2,5-diphenyltetrazolium bromide) was added, and color development was detected using a spectrophotometer to count the number of surviving cells. On the basis of this, viability of each cell was calculated (FIGS. 1 and 1b). In this connection, an experimental group treated with PBS only was used as a control group.

human erythrocyte = experiment: Disruption of human erythrocytes (absorbance); details: peptide 10-200 μg/ml, 30 min, FIG. 3
Experimental: as §2
Meanwhile, PBS was added to erythrocytes obtained from the human blood, and diluted 1,000-fold. Each of the synthesized peptides, a known anticancer peptide, buforin IIb, and a known non-cytotoxic peptide, magainin 2 was added thereto at a concentration of 10, 25, 50, 100 or 200 μg/ml. After 30 min, disruption of erythrocytes was determined by the difference in absorbance using spectrometry (FIG. 3). In this connection, an experimental group treated with PBS only was used as a control group.

[2] = tested on: human embryo fibroblast (FSF); experiment: MTT viability of normal human embryo fibroblast (FSF) cells; details: peptide 10-200 μg/ml, 4 days, FIG. 1
Experimental: as §2, §3

K-562 cancer cell line [3] = experiment: Anticancer activity on cancer cells lacking ganglioside (PMPP, MTT viability); type: cell-based, human; details: peptide 10 μg/ml, PMPP 0, 2 and 4 μM, 48 hrs, FIG. 16
Experimental: In detail, the K-562 cancer cell line was aliquoted to each well of 96-well plate at a density of 1×10^4, and each well was treated with an inhibitor of ganglioside biosynthesis, PMPP at the concentration of 0, 2 and 4 μM, and then treated with 10 μg/ml of the peptides of the present invention, buforin IIb and magainin 2, followed by cultivation for 48 hrs. Cell viability was measured in the same manner as in Example 1 (MTT assay) (FIG. 16).

HeLa cell line = experiment: Fluorescence microscopy of FITC-labeled peptide, HeLa cell line; type: cell-based, human; details: 20 μg/ml, 1 hr, fluorescence microscope, FIG. 10
Experimental: (§1) To reconfirm the cell selectivity of the peptides of the present invention, each 2×10^5 of normal FSF and HaCat cells, and SM-MEL-5 cell line, HeLa cell line and HCT-116 cell line as cancer cells were cultured at 37° C. overnight, and FITC (fluorescein isothiocyanate)-labeled peptides, buforin IIB and magainin 2 were added thereto at a concentration of 20 μg/ml, followed by incubation for 1 hr. Each cell or cell line was washed with PBS, and observed under a fluorescence microscope (FIG. 10).

SM-MEL-5 cell line = experiment: Fluorescence microscopy of FITC-labeled peptide, SM-MEL-5 cell line; type: cell-based, human; details: 20 μg/ml, 1 hr, fluorescence microscope, FIG. 10
Experimental: as §1

normal FSF cells = experiment: Fluorescence microscopy of FITC-labeled peptide, FSF cells; type: cell-based, human; details: 20 μg/ml, 1 hr, fluorescence microscope, FIG. 10
Experimental: as §1

normal HaCat cells = experiment: Fluorescence microscopy of FITC-labeled peptide, HaCat cells; type: cell-based, human; details: 20 μg/ml, 1 hr, fluorescence microscope, FIG. 10
Experimental: as §1

K-562 cancer cell line [4] = experiment: Competitive binding assay with ganglioside, phosphatidylserine or heparin (MTT viability); type: cell-based, human; details: peptide 10 μg/ml, 48 hrs
From the text: Accordingly, the present inventors assumed that external addition of ganglioside, phosphatidylserine, and heparin to the cancer cell culture media causes dispersion of the peptides of the present invention in the cancer cell surface and the negatively charged materials added to the culture media, whereby the anticancer activity is reduced by the addition of negatively charged materials in a concentration-dependent manner.
In detail, the K-562 cancer cell line was aliquoted to each well of 96-well plate at a density of 1×10^4, and each well was treated with 1 to 100 μg/ml of heparin, phosphatidylserine or ganglioside, and 10 μg/ml of the peptides of the present invention, buforin IIb and magainin 2, followed by cultivation for 48 hrs. Cell viability was measured in the same manner as in Example 1 (MTT assay) (FIGS. 13 to 15).

HCT-116 cell line = experiment: Fluorescence microscopy of FITC-labeled peptide, HCT-116 cell line; type: cell-based, human; details: 20 μg/ml, 1 hr, fluorescence microscope, FIG. 10
Experimental: as §1

Substance	viability of HaCat cells (toxicity on normal cells) [1]	viability of erythrocytes (toxicity on normal cells) (human erythrocyte)	viability of FSF cells (toxicity on normal cells) [2]	viability of cancer cells with increasing concentration of inhibitor of ganglioside biosynthesis (K-562 cancer cell line [3])	detection of FITC-labeled peptide in HeLa cell line (HeLa cell line)	detection of FITC-labeled peptide in SM-MEL-5 cell line (SM-MEL-5 cell line)	detection of FITC-labeled peptide in normal FSF cells (normal FSF cells)	detection of FITC-labeled peptide in normal HaCat cells (normal HaCat cells)	cell viability with external addition of ganglioside (K-562 cancer cell line [4]; ganglioside 1 to 100 μg/ml, FIG. 13)	cell viability with external addition of heparin (K-562 cancer cell line [4]; heparin 1 to 100 μg/ml, FIG. 15)	cell viability with external addition of phosphatidylserine (K-562 cancer cell line [4]; phosphatidylserine 1 to 100 μg/ml, FIG. 14)	detection of FITC-labeled peptide in HCT-116 cell line (HCT-116 cell line)
APKAMKLLKKLLKLQKKGI-NH2 [NKC, APKAMKLLKKLLKLQKKGI-amine]	little toxicity	little toxicity	little toxicity	–	–	–	–	–	–	–	–	–
APKAMRLLRRLLRLQKKGI-NH2 [NRC, APKAMRLLRRLLRLQKKGI-amide]	little toxicity	little toxicity	little toxicity	–	–	–	–	–	–	–	–	–
buforin IIb	–	–	–	increased	in a large quantity	in a large quantity	rarely detected	at a predetermined level	high cell viability	high cell viability	high cell viability	in a large quantity
magainin 2	–	–	–	–	not detected	not detected	not detected	not detected	–	–	–	not detected
